In article PMC4652989, “A small-molecule inhibitor suppresses the tumor-associated mitochondrial NAD(P)^+-dependent malic enzyme (ME2) and induces cellular senescence” (Oncotarget, 2015):
Read-outs that look alike come from different tables or passages of the source.

Tests used:
H1299 cells [1] = type: cell-based, human; conditions: for H1299 cell number / decrease of H1299 cell number compared with the control: 24 h; for H1299 cell growth, time course: within 48 h
Experimental: H1299 cells were grown in 90% Dulbecco's Modified Eagle Medium (DMEM) with 10% fetal bovine serum (FBS) (Gibco BRL, USA) at a temperature of 37°C in a humidified 5% CO2 environment. Cells were seeded in 6-well cell culture dishes in triplicate at a density of 1 × 10^5 cells/ml medium containing 10% FBS and treated with EA or siRNA at the indicated dosage. The cells were then counted, and cell numbers were determined at the indicated time points. The control shLuc and ME2 shRNA were purchased from the Nature RNAi Core Facility, Taipei, Taiwan (NRC). The shME2 was made using pLKO 005 (TRC2 vector). The target shRNA sequence for ME2 is 5′-[…]-3′, and the target shRNA sequence for luciferase is 5′-[…]-3′.

[2] = system: m-NAD(P)-ME protein expression in H1299 cells; assay: immunoblotting of m-NAD(P)-ME in H1299 cells; type: cell-based, human; conditions: various concentrations of EA, within 24 h, Western blot
Experimental: The supernatants were boiled in loading buffer, and an aliquot containing 100 μg of protein was separated by SDS-PAGE. After blotting, the PVDF membranes were incubated with anti-human m-NAD(P)-ME (ME2) (Sigma, St Louis, MO) and anti-β-actin antibodies (Santa Cruz) for 6 h, and membranes were then incubated for 1 h with the second antibody labeled with horseradish peroxidase. The antigen-antibody complexes were visualized using enhanced chemiluminescence (Amersham Pharmacia Biotech, USA).

[3] = system: m-NAD(P)-ME mRNA in H1299 cells; assay: RT-PCR of ME2 in H1299 cells; type: cell-based, human; conditions: EA for 12 h
Experimental: Total RNA was isolated from H1299 cells treated with shME2 or EA for 12 h by using a total RNA reagent (MDBio, Inc., Taiwan). One microgram of RNA was reverse transcribed into cDNA using MMLV reverse transcriptase (Epicentre Biotechnologies, USA). PCR was performed in the linear range (by 25 cycles) with primers specific for ME2 and actin. The primer sequences used to amplify the target genes were as follows: ME2 forward primer, 5′-[…]-3′; ME2 reverse primer, 5′-[…]-3′; actin forward primer, 5′-[…]-3′, and reverse primer, 5′-[…]-3′.

H1299 cells [4] = assay: senescence-associated β-galactosidase (SA-β-gal) assay; type: cell-based, human
Experimental: Cells were washed in PBS, fixed for 4 min at room temperature in approximately 2 to 3% formaldehyde or 0.2% glutaraldehyde, washed, and then incubated at 37°C under no C0_2 conditions with fresh SA-β-Gal stain solution. Cells were stained with 5-bromo-4-chloro-3-indolyl β-D-galactoside (X-Gal) for 2 to 16 h and detected using the senescence-associated β-galactosidase (SA-β-gal) assay. The percentages of SA-β-gal^+ cells were calculated by the number of positively stained cells per 1,000 cells counted in random fields.

m-NAD(P)-ME E59N = molecular target: T1, m-NAD(P)-ME E59N (Homo sapiens, UniProt P23368, E59N); assay: malic enzyme activity inhibition, fumarate site mutant; type: biochemical; conditions: E59N pre-incubated with 40 μM EA
T1 construct: made in house; host or cells: Escherichia coli BL21
T1 sequence (P23368 19-584 E59N): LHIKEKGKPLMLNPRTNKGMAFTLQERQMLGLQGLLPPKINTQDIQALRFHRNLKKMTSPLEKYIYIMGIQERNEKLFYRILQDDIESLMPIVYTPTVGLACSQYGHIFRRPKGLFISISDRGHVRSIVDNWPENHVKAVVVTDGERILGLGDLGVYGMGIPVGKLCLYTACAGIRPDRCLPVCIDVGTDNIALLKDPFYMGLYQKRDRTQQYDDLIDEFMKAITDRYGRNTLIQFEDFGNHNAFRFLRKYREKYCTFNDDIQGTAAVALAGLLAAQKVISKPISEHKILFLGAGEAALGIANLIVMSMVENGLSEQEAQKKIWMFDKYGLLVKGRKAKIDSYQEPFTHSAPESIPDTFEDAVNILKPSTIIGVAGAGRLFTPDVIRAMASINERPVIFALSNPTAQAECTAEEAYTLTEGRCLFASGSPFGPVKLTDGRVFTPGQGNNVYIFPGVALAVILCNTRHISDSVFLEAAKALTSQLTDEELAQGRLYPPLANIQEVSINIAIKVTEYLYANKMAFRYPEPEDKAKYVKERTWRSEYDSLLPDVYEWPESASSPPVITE
Experimental: (§1) The malic enzyme reaction was assayed in a reaction buffer containing 50 mM Tris-HCl (pH 7.4) with saturated concentrations of L-malate, NAD^+ or NADP^+ and MgCl2, with various concentrations of EA in a total volume of 1 ml at 30°C. The absorbance at 340 nm was continuously monitored in a UV/VIS spectrophotometer Lambda 25 (Perkin Elmer, MA, USA). In this process, one unit of enzyme was defined as the amount of enzyme that produces 1 μmol of NAD(P)H per min under the assay conditions. An absorption coefficient of 6.22 cm^−1mM^−1 for NAD(P)H was used in the calculations.
(§2) The inhibition experiments were conducted with a series of EA concentrations in a buffer containing 50 mM Tris-HCl (pH 7.4), 40 mM malate (pH 7.4), 10 mM MgCl2 and 2 mM NAD^+ (pH 7.4).

m-NAD(P)-ME R91A = molecular target: T2, m-NAD(P)-ME R91A (Homo sapiens, UniProt P23368, R91A); assay: as above; type: biochemical; conditions: R91A pre-incubated with 40 μM EA
T2 construct: made in house; host or cells: Escherichia coli BL21
T2 sequence (P23368 19-584 R91A): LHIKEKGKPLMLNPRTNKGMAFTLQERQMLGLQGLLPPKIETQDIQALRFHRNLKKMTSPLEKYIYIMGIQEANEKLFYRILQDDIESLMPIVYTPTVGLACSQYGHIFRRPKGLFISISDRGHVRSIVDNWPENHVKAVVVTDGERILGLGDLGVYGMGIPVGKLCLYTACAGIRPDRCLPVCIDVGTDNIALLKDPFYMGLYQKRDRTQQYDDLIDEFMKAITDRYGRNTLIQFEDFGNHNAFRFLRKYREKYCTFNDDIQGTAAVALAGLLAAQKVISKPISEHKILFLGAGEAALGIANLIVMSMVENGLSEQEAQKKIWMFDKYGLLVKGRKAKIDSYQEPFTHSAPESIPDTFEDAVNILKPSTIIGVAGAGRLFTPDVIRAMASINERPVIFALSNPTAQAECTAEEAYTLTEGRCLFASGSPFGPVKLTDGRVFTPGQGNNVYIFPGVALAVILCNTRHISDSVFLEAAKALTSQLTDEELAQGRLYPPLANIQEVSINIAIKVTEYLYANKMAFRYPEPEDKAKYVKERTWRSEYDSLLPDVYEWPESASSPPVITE
Experimental: as §1, §2

m-NAD(P)-ME Q51A/E90A = molecular target: T3, m-NAD(P)-ME Q51A/E90A (Homo sapiens, UniProt P23368, E90A/Q51A); assay: malic enzyme activity inhibition, dimer interface mutant; type: biochemical; conditions: Q51A/E90A pre-incubated with 40 μM EA
T3 construct: made in house; host or cells: Escherichia coli BL21
T3 sequence (P23368 19-584 Q51A/E90A): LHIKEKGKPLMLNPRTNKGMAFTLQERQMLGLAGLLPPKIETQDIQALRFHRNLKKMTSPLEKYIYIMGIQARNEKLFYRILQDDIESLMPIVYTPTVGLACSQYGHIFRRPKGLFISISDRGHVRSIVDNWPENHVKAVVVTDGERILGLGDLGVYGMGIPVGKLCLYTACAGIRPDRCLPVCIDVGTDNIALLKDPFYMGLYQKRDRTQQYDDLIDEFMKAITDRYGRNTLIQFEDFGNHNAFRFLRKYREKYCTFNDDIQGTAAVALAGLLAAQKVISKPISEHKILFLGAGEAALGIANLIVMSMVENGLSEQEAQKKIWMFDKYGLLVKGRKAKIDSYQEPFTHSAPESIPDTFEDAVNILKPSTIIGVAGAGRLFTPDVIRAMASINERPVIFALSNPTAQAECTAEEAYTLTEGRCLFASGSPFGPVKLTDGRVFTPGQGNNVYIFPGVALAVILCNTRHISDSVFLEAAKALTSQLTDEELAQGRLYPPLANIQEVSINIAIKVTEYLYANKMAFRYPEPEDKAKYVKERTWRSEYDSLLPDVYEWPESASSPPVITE
Experimental: as §1, §2

restoration of EA-inhibited enzyme activity by fumarate (m-NAD(P)-ME E59N) | restoration of EA-inhibited enzyme activity by fumarate (m-NAD(P)-ME R91A) | restoration of EA-inhibited enzyme activity by fumarate (m-NAD(P)-ME Q51A/E90A) | SMILES | H1299 cell number (H1299 cells [1]; 5 nM EA) | H1299 cell number (H1299 cells [1]; 10 nM EA) | decrease of H1299 cell number compared with the control (H1299 cells [1]; 100 nM EA) | decrease of H1299 cell number compared with the control (H1299 cells [1]; 1 μM EA) | H1299 cell growth, time course (H1299 cells [1]; 1 μM EA) | decrease of H1299 cell number compared with the control (H1299 cells [1]; 10 μM EA) | H1299 cell growth, time course (H1299 cells [1]; 10 μM EA, vs 1 μM) | protein expression of m-NAD(P)-ME in H1299 cells [2] | mRNA synthesis of m-NAD(P)-ME in H1299 cells [3] | number of SA-β-gal+ H1299 cells (H1299 cells [4]; 1 μM EA, 0-72 h) | EA-induced H1299 cell senescence (H1299 cells [4]; 10 μM EA, within 72 h, vs 1 μM) | amount of senescence after 10 μM EA relative to 1 μM EA (H1299 cells [4]; time course 0-72 h, SA-β-gal+ cells)
 |  |  | O=C(O)c1cc2ccccc2c(Cc2c(O)c(C(=O)O)cc3ccccc23)c1O [Embonic acid, embonic acid] | did not decrease | did not decrease | 23% | 30% | inhibited H1299 cell growth | 40% | more pronounced | not influenced | not influenced | increased in a time-dependent manner | more prominent | 2 fold
could not be restored | could not be restored | could not be restored | O=C(O)/C=C/C(=O)O [fumarate] |  |  |  |  |  |  |  |  |  |  |  | 
